US20220054494A1, “METHODS FOR TREATING BLADDER AND URETHRA DYSFUNCTION AND DISEASE” (University of Pittsburgh - Of the Commonwealth System of …, priority 2019, published 2022)
Entries after “also recorded” stand apart in the source; their conditions may differ.

Legend:
[1] = tested on: deoxycorticosterone/salt-induced hypertension; conditions: chronic oral treatment of rats; Jackson et al. 2016; cited from earlier work
[2] = Jackson et al., J Pharmacol Exp Ther 2016; cited from earlier work
aged rats [3] = experiment: Voiding analysis in metabolic cages, aged rats; assay type: in vivo, rat; conditions: aged rats; intravesical 5 μM forodesine plus 10 μM DEA-NONOate, 3 weeks of treatment; vs aged control rats
Experimental: Experimental design: Young (3 months of age) and aged (25 to 30 months of age) Fisher 344 rats were used in these experiments. Some of the aged Fisher 344 rats were treated with 8-AG (5 mg kg/day via drinking water) for 1 month.
Voiding analysis: Rats were placed in metabolic cages for 24 hr (once per week for the duration of the study). Voided urine was collected in cups attached to force displacement transducers (GRASS TECHNOLOGIES®, Warwick, R.I.) connected to a computer running WINDAQ™ data acquisition software (DATAQ™ Instruments Inc., Akron, Ohio). Data were averaged for 24 h, and voiding frequency, total voided volume, and volume per void were analyzed. Voiding frequency was calculated as the number of voiding events per hour during 24 h, and volume per void, which defines bladder capacity, was calculated as an average of the voids occurring during these periods.
Animals: Male and female Fisher 344 rats were employed (Charles River; Wilmington, Mass. and the NIA rodent colony). Some rats were young (3 months of age), some were aged (25-30 months of age), and others were aged and treated with oral 8-AG (5 mg/kg/day; 6 weeks). Under isoflurane anesthesia and using an aseptic technique, an incision was made into the lower abdomen and in the scapular area. Sterile PE50 tubing was threaded subcutaneously from the lower abdomen to the scapular area and connected to a one-channel vascular access button (Intech Laboratories, Plymouth Meeting, Pa.). In the abdomen, the tubing was inserted into the bladder and secured with a small purse-string suture. The incisions were closed, and the animals were allowed to recover for 7-10 days before further experimentation. Animals were divided into three groups. A control group of aged rats received daily infusions with 10 μM DEA-NONOate (SIGMA-ALDRICH®, St. Louis, Mo.) in sterile 0.9% saline. A second group received 100 μM 8-AG plus 10 μM DEA-NONOate in 0.9% saline, and a third group received 5 μM forodesine (SIGMA-ALDRICH®) plus 10 μM DEA-NONOate in 0.9% saline. Bladders were instilled via a catheter tether kit (Instech Laboratories) connected to a syringe pump for continuous infusion (rate 200 μl/min; 30 minutes/daily) for 3-6 weeks. The Institutional Animal Care and Use Committee approved all procedures. The investigation conforms to the Guide for the Care and Use of Laboratory Animals published by the US National Institutes of Health (NIH Publication No. 85-23, revised 1996).
Protocol 1: Young, aged, and 8-AG-treated aged rats were placed in metabolism cages for 24 hr once per week. The light cycle was from 7:00 AM to 7:00 PM, and food and water were provided ad libitum. Voided urine was collected in cups attached to force displacement transducers (GRASS TECHNOLOGIES®, Warwick, R.I.) that were connected to a computer running Windaq data acquisition software (DATAQ® Instruments I2nc., Akron, Ohio). Data were averaged for 24 h and analyzed for 12-h periods during the day (7:00 AM-7:00 PM) and night (7:00 PM-7:00 AM). Voiding frequency, total voided volume, and volume per void were analyzed. Voiding frequency was calculated as the number of voiding events per hour during 24 h and during the 12-h day and 12-h night periods. Volume per void, which defines bladder capacity, was calculated as an average of the voids occurring during these periods.
Voiding Analysis: Young, aged, and 8-AG-treated aged rats were placed in metabolic cages (24 hr; once per week) for the duration of the study. The light cycle was from 7:00 AM to 7:00 PM, and food and water were provided ad libitum. Voided urine was collected in cups attached to force displacement transducers (Grass Technologies, Warwick, R.I.) connected to a computer (Windaq data acquisition software DATAQ Instruments Inc., Akron, Ohio). Data were averaged for 24 h and analyzed for 12-h periods during the day (7:00 AM-7:00 PM) and night (7:00 PM-7:00 AM). Voiding frequency, total voided volume, and volume per void were analyzed. […]

aged rats [4] = experiment: Voiding analysis in metabolic cages, aged rats; assay type: in vivo, rat; conditions: aged rats; intravesical 5 μM forodesine plus 10 μM DEA-NONOate, 3 weeks of treatment; vs aged control rats; remark: listed apart in the source

Compound	development of deoxycorticosterone/salt-induced hypertension [1]	diuresis [2]	glucosuria [2]	natriuresis [2]	potassium excretion [2]	voided volume (aged rats [3])	voiding frequency (aged rats [3])	inter-contraction interval (aged rats [4])
Nc1nc2c(nc(N)n2[C@@H]2O[C@H](CO)[C@@H](O)[C@H]2O)c(=O)[nH]1 [8-aminoguanosine, 8-Aminoguanosine, reference compound]	attenuate	induce	induce	induce	reduce	–	–	–
O=c1[nH]cnc2c([C@@H]3N[C@H](CO)[C@@H](O)[C@H]3O)c[nH]c12 [forodesine, 7-[(2S,3S,4R,5R)-3,4-dihydroxy-5-(hydroxymethyl)pyrrolidin-2-yl]-3H,4H,5H-pyrrolo[3,2-d]pyrimidin-4-one, reference compound]	–	–	–	–	–	significant improvement; also recorded: significantly attenuates	significant improvement; also recorded: significantly attenuates	significant improvement; also recorded: significantly attenuates
